Like-named read-outs stand apart in the source and are kept apart here. Ends that are not written are not given here.
What was measured:
[1] = system: Batrachochytrium dendrobatidis Bd-GPL strain JEL404; conditions: slope of growth, positive = inhibition, negative = no inhibition
Method: Bd-peptide challenge assays were conducted with the crude peptides extracted from the salamander skin secretions and with the 20 synthesized peptides. We followed methods by Pereria et al.[49] to conduct assays with the crude peptides using Bd-GPL strain JEL404 at 1 × 10^6 zoospores/mL. Briefly, skin peptide samples were pooled together based on species-site-injection (Table 1). Skin peptides samples were serially diluted 2-fold in MilliQ (Ultrapure Type 1) water and assayed at a concentration of 2.35–75 μg/mL based on starting peptide concentration available. For synthesized peptides, we conducted assays from 15.6 to 500 μg/ml. In both assays, we quantified percent inhibition of each well using slope of growth[90] in which positive values indicate inhibition and negative values indicate no inhibition.

E. faecium ATCC 19434 = experiment: microbe, parasite or virus in culture
Method: (§1) Antimicrobial susceptibility testing of the 20 synthesized peptides against 17 bacterial strains of clinical relevance in the ESKAPEE panel was conducted using minimum inhibitory concentration (MIC) assays following the broth microdilution method outlined by Parker et al.[91]. The ESKAPEE panel is comprised of fourteen American Type Culture Collection (ATCC) strains and three Multidrug Resistant Organism Repository and Surveillance Network (MRSN) bacterial strains. These strains represent at least one drug-susceptible strain and one drug-resistant strain for each bacterium to assess drug efficacy across various resistance mechanisms. This panel is comprised of the following bacterial species and strains: E. faecium (ATCC 19434, ATCC 49224), S. aureus (ATCC 25923, ATCC 43300), K. pneumoniae (ATCC 700603, ATCC 13883, MRSN 1320), A. baumannii (ATCC 17978, ATCC 19606, MRSN 959), P. aeruginosa (ATCC 15692, ATCC 27853, MRSN 5519), E. cloacae (ATCC 13047, ATCC 35549), and E. coli (ATCC 35218, ATCC 43888). Bacteria were grown in cation-adjusted Mueller-Hinton broth (CAMHB) to achieve a final inoculum of 1 × 10⁵ CFU/mL. CAMHB is selected for its batch-to-batch reproducibility, low levels of antimicrobial inhibitors, and ability to support the growth of most bacterial pathogens.
(§2) Briefly, lyophilized peptides were dissolved in 0.2% TFA + 0.4% BSA in water to 2.56 mg/mL, ultrasonicated for 20 min, diluted 10-fold into CAMHB, and then serially diluted 2-fold in 0.02% TFA + 0.04% BSA in CAMHB and assayed at a concentration of 0.25 to 128 μg/mL. Assays were set up using the Tecan Freedom EVO liquid handling robot and software (Tecan, Switzerland) with 50 μL of bacterial inoculum and 50 μL of peptide transferred into round-bottom 96-well microtiter plates. Each plate assay was performed in duplicate and incubated at 37 °C for 20 h without agitation. Bacterial growth was assessed using the BIOMIC V3 Image Analysis system (Giles Scientific, USA) and the MIC values were determined visually according to the Clinical and Laboratory Standards Institute (CLSI) guidelines.

A. baumannii ATCC 17978 = experiment: microbe, parasite or virus in culture
Method: as §1, §2

E. coli ATCC 35218 = experiment: microbe, parasite or virus in culture; conditions: E. coli 35218; Week 1 (12/6/2023)
Method: as §1, §2

K. pneumoniae ATCC 13883 = experiment: microbe, parasite or virus in culture
Method: as §1, §2

S. aureus ATCC 25923 = experiment: microbe, parasite or virus in culture
Method: as §1, §2

E. cloacae ATCC 35549 = experiment: microbe, parasite or virus in culture
Method: as §1, §2

P. aeruginosa ATCC 27853 = experiment: microbe, parasite or virus in culture
Method: as §1, §2

A. baumannii ATCC 19606 = experiment: microbe, parasite or virus in culture
Method: as §1, §2

S. aureus ATCC 43300 = experiment: microbe, parasite or virus in culture; conditions: S. aureus 43300; Week 1 (12/6/2023)
Method: as §1, §2

[2] = system: K. pneumoniae ATCC 700603; experiment: microbe, parasite or virus in culture; conditions: K. pneumoniae 700603; Week 1 (12/6/2023)
Method: as §1, §2

E. coli ATCC 43888 = experiment: microbe, parasite or virus in culture
Method: as §1, §2

E. faecium ATCC 49224 = experiment: microbe, parasite or virus in culture
Method: as §1, §2

P. aeruginosa MRSN 5519 = experiment: microbe, parasite or virus in culture
Method: as §1, §2

E. cloacae ATCC 13047 = experiment: microbe, parasite or virus in culture
Method: as §1, §2

[3] = parameters: method as in Biomatik (vendor); conditions: 1.0 mg peptide in 1.0 ml solvent; peptides synthesized by Biomatik; ref Biomatik (vendor); cited from earlier work
P. aeruginosa PA01 (Si) = experiment: microbe, parasite or virus in culture; assay type: cell-based
From the text: Supplement 41522_2025_837_MOESM13_ESM.xlsx, sheet "Table_S13_ESKAPEE-MIC" | column: Bacterial MIC (µg/mL)

A. baumannii 5075 = conditions: Week 1 (12/6/2023)
[4] = synthesized peptide 15.625 μg/mL
[5] = synthesized peptide 31.25 μg/mL
[6] = K. pneumoniae 4640, Week 1 (12/6/2023)
[7] = E. faecium 19434, Week 1 (12/6/2023)
[8] = A. baumannii 17978, Week 1 (12/6/2023)
[9] = K. pneumoniae 13883, Week 1 (12/6/2023)
[10] = S. aureus 25923, Week 1 (12/6/2023)
[11] = E. cloacae 35549, Week 1 (12/6/2023)
[12] = P. aeruginosa 27853, Week 1 (12/6/2023)
[13] = A. baumannii 19606, Week 1 (12/6/2023)
[14] = E. coli 43888, Week 1 (12/6/2023)
[15] = E. faecium 49224, Week 1 (12/6/2023)
[16] = P. aeruginosa 5519, Week 1 (12/6/2023)
[17] = E. cloacae 13047, Week 1 (12/6/2023)
[18] = P. aeruginosa PA01 (Si), not typical ESKAPEE strain, Week 1 (12/6/2023)

KGPRPPGFSPFR [PrMb-Eb7]
-125.322%: Bd inhibition score (percent inhibition), mean [1, 4]
-116.924%: Bd inhibition score (percent inhibition), mean [1, 5]
-143.314%: Bd inhibition score (percent inhibition), mean ([1]; synthesized peptide 250 μg/mL)
-107.962%: Bd inhibition score (percent inhibition), mean ([1]; synthesized peptide 62.5 μg/mL)
-136.81%: Bd inhibition score (percent inhibition), mean ([1]; synthesized peptide 500 μg/mL)
1.0mg peptide soluble in 1.0ml H2O: Suggest solvent (solubility) [3]
-145.651%: Bd inhibition score (percent inhibition), mean ([1]; synthesized peptide 125 μg/mL)
>128.000 µg/mL: Bacterial MIC (K. pneumoniae 4640; [6]) | Bacterial MIC (E. faecium ATCC 19434; [7]) | Bacterial MIC (A. baumannii ATCC 17978; [8]) | Bacterial MIC (E. coli ATCC 35218) | Bacterial MIC (K. pneumoniae ATCC 13883; [9]) | Bacterial MIC (S. aureus ATCC 25923; [10]) | Bacterial MIC (E. cloacae ATCC 35549; [11]) | Bacterial MIC (P. aeruginosa ATCC 27853; [12]) | Bacterial MIC (A. baumannii ATCC 19606; [13]) | Bacterial MIC (S. aureus ATCC 43300) | Bacterial MIC [2] | Bacterial MIC (E. coli ATCC 43888; [14]) | Bacterial MIC (E. faecium ATCC 49224; [15]) | Bacterial MIC (P. aeruginosa MRSN 5519; [16]) | Bacterial MIC (E. cloacae ATCC 13047; [17]) | Bacterial MIC (P. aeruginosa PA01 (Si); [18]) | Bacterial MIC (A. baumannii 5075)

LHTKRVQNKKKNGNRRQTIGKKCTAGFICKKEYLKLNPGIYSVIHD (cysteines drawn unpaired) [Tr-Eb1]
>128.000 µg/mL: Bacterial MIC (K. pneumoniae 4640; 4640, 20 h) | Bacterial MIC (E. faecium ATCC 19434; ATCC 19434, 20 h) | Bacterial MIC (A. baumannii ATCC 17978; ATCC 17978, 20 h) | Bacterial MIC (E. coli ATCC 35218) | Bacterial MIC (K. pneumoniae ATCC 13883; ATCC 13883, 20 h) | Bacterial MIC (S. aureus ATCC 25923; ATCC 25923, 20 h) | Bacterial MIC (E. cloacae ATCC 35549; ATCC 35549, 20 h) | Bacterial MIC (P. aeruginosa ATCC 27853; ATCC 27853, 20 h) | Bacterial MIC (A. baumannii ATCC 19606; ATCC 19606, 20 h) | Bacterial MIC (S. aureus ATCC 43300) | Bacterial MIC [2] | Bacterial MIC (E. coli ATCC 43888; ATCC 43888, 20 h) | Bacterial MIC (E. faecium ATCC 49224; ATCC 49224, 20 h) | Bacterial MIC (P. aeruginosa MRSN 5519; MRSN 5519, 20 h) | Bacterial MIC (E. cloacae ATCC 13047; ATCC 13047, 20 h) | Bacterial MIC (P. aeruginosa PA01 (Si); Si) | Bacterial MIC (A. baumannii 5075)
1.0mg peptide soluble in 1.0ml DMSO: Suggest solvent (solubility) [3]

NRKGPRPPGFSPFR [PrAd-Eb9]
-188.605%: Bd inhibition score (percent inhibition), mean ([1]; synthesized peptide 500 μg/mL)
-134.776%: Bd inhibition score (percent inhibition), mean ([1]; synthesized peptide 62.5 μg/mL)
-129.548%: Bd inhibition score (percent inhibition), mean [1, 5]
-156.474%: Bd inhibition score (percent inhibition), mean ([1]; synthesized peptide 125 μg/mL)
-120.796%: Bd inhibition score (percent inhibition), mean [1, 4]
1.0mg peptide soluble in 1.0ml H2O: Suggest solvent (solubility) [3]
-160.396%: Bd inhibition score (percent inhibition), mean ([1]; synthesized peptide 250 μg/mL)
>128.000 µg/mL: Bacterial MIC (K. pneumoniae 4640; [6]) | Bacterial MIC (E. faecium ATCC 19434; [7]) | Bacterial MIC (A. baumannii ATCC 17978; [8]) | Bacterial MIC (E. coli ATCC 35218) | Bacterial MIC (K. pneumoniae ATCC 13883; [9]) | Bacterial MIC (S. aureus ATCC 25923; [10]) | Bacterial MIC (E. cloacae ATCC 35549; [11]) | Bacterial MIC (P. aeruginosa ATCC 27853; [12]) | Bacterial MIC (A. baumannii ATCC 19606; [13]) | Bacterial MIC (S. aureus ATCC 43300) | Bacterial MIC [2] | Bacterial MIC (E. coli ATCC 43888; [14]) | Bacterial MIC (E. faecium ATCC 49224; [15]) | Bacterial MIC (P. aeruginosa MRSN 5519; [16]) | Bacterial MIC (E. cloacae ATCC 13047; [17]) | Bacterial MIC (P. aeruginosa PA01 (Si); [18]) | Bacterial MIC (A. baumannii 5075)

From article PMC12635268, “Novel antimicrobial peptides and peptide-microbiome crosstalk in Appalachian salamander skin” (NPJ Biofilms and Microbiomes, 2025)
